pIC50: −log10 of the molar value. Where a name gives a salt, the structure may show the parent alone.
target: T1, hITK enzyme (FLAG-tagged full-length hITK) (Homo sapiens, UniProt Q08881); experiment: ITK inhibitory activity (HTRF kinase assay, biotinylated GST-SLP76 substrate); format: biochemical; settings: IC50 calculated from the 2 test compound concentrations sandwiching 50% ITK inhibitory rate
T1 construct: strongly expressing FLAG-tagged full-length hITK in Sf9 cells; FLAG; made in house; host or cells: Sf9 insect cells (ITK); Escherichia coli (GST-SLP76 substrate)
T1 sequence (Q08881 1-620): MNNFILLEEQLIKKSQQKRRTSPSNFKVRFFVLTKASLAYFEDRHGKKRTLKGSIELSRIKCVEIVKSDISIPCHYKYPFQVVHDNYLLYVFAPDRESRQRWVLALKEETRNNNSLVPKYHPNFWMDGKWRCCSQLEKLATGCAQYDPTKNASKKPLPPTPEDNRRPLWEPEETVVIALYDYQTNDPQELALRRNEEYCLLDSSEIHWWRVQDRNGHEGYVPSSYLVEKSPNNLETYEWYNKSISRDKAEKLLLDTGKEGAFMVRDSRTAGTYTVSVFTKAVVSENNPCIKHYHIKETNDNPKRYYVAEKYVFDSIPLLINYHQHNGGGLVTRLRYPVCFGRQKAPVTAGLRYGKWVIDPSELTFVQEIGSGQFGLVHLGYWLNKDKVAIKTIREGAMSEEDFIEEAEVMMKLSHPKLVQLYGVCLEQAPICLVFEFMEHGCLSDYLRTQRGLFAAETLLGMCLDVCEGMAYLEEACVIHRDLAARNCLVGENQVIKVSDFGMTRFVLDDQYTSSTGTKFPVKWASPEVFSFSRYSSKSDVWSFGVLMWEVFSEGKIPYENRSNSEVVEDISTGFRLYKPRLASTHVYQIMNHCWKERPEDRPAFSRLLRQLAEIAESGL
Experimental: (1) Preparation of hITK Enzyme
hITK enzyme was prepared by strongly expressing FLAG-tagged full-length hITK in Sf9 cells, and purifying same by anti-FLAG antibody column.
(2) Preparation of biotinylated GST-SLP76
Biotinylated GST-SLP76 was prepared by strongly expressing GST-tagged SLP76 (aa95-175) in Escherichia coli, purifying same by glutathion sepharose column and biotinylating same.
(3) Preparation of Solution
(i) buffer for dilution: 20 mmol/L 3-(N-morpholino)propanesulfonic acid (pH 7.0) (DOJINDO LABORATORIES), 10 mmol/L magnesium chloride (Sigma-Aldrich Corporation), 1 mmol/L dithiothreitol (Nacalai Tesque, Inc.), 0.1% gelatin (Sigma-Aldrich Corporation)
(ii) substrate solution: 0.2 μg/mL biotinylated GST-SLP76, 100 μmol/L ATP (Sigma-Aldrich Corporation), prepared with buffer for dilution
(iii) test compound solution: test compound, 50% dimethyl sulfoxide (DMSO), prepared with buffer for dilution
(iv) enzyme solution: 50 ng/mL hITK enzyme, prepared with buffer for dilution
(v) control solution: solution after removal of test compound from the mixture of the above-mentioned (i), (ii) and (iii)
(vi) blank solution: solution after removal of ATP from the mixture of the above-mentioned (i), (ii) and (iii)
(vii) detection buffer: 0.1 μg/mL Anti-Phosphotyrosine (PT66)-Cryptate (Cisbio), 2.5 μg/mL streptavidin-binding XL665 (Cisbio), 50 mmol/L 4-(2-hydroxyethyl)-1-piperazineethanesulfonic acid (pH 7.4) (Nacalai Tesque, Inc.), 30 mmol/L EDTA (NipponGene), 0.1% TritonX (Sigma-Aldrich Corporation), 200 mmol/L potassium fluoride (Wako Pure Chemical Industries, Ltd.), 0.05% bovine serum albumin (Sigma-Aldrich Corporation) (4) Measurement of ITK Inhibitory Activity
A substrate solution (25 μL/well), a test compound solution (5 μL/well) and an enzyme solution (20 μL/well) were added into 96 well half-area white plate (plate, Corning Incorporated 3642) to start a kinase reaction. The plate was stood still at room temperature for 10 min. Then, a detection buffer (50 μL/well) was added to the plate. After 2 hr from the addition of the detection buffer, fluorescence intensity at 620 nm (excited at 337 nm), and fluorescence intensity at 665 nm ([…]) were measured by a fluorescence microplate reader.
The Ratio (fluorescence intensity at 665 nm/fluorescence intensity at 620 nm×10000) of each test compound was calculated from the measured fluorescence intensity. Simultaneously, the measurement was performed using a blank solution and a control solution, and % of control value of each test compound was calculated from the following formula. % of control=(Ratio of test compound−Ratio of blank)/(Ratio of control−Ratio of blank)×100 ITK inhibitory rate (%)=100−(% of control)
The IC50 value was calculated from the test compound concentrations at 2 points sandwiching 50% ITK inhibitory rate.
In the test for the compounds of Examples 380 and 381, the ATP concentration of the substrate solutions was 6 μmol/L.

Compound	pIC50
CC(=O)N(C)c1ccc2cc(-c3n[nH]c4c3CCC(C)(C)C4)[nH]c2c1 [Example 1, N-[2-(6,6-dimethyl-4,5,6,7-tetrahydro-1H-indazol-3-yl)-1H-indol-6-yl]-N-methylacetamide]	8.15
CCN(C(C)=O)c1ccc2cc(-c3n[nH]c4c3CCC(C)(C)C4)[nH]c2c1 [Example 2, N-[2-(6,6-dimethyl-4,5,6,7-tetrahydro-1H-indazol-3-yl)-1H-indol-6-yl]-N-ethylacetamide]	8.30
CN(C(=O)OCc1ccccc1)c1ccc2cc(-c3n[nH]c4c3CCC(C)(C)C4)[nH]c2c1 [Example 3, benzyl N-{2-(6,6-dimethyl-4,5,6,7-tetrahydro-1H-indazol-3-yl)-1H-indol-6-yl}-N-methylcarbamate]	7.41
C[C@@H](C(=O)N(C)c1ccc2cc(-c3n[nH]c4c3CCC(C)(C)C4)[nH]c2c1)N1CCOCC1 [Example 4, (S)—N-[2-(6,6-dimethyl-4,5,6,7-tetrahydro-1H-indazol-3-yl)-1H-indol-6-yl]-N-methyl-2-(morpholin-4-yl)propionamide]	8.70
C[C@@H](C(=O)N(C)c1ccc2cc(-c3n[nH]c4c3CCC(C)(C)C4)[nH]c2c1)N1CCOCC1 [Example 5, (S)—N-[2-(6,6-dimethyl-4,5,6,7-tetrahydro-1H-indazol-3-yl)-1H-indol-6-yl]-N-methyl-2-(morpholin-4-yl)propionamide hydrochloride]	8.52
CN(C(=O)CN1CCOCC1=O)c1ccc2cc(-c3n[nH]c4c3CCC(C)(C)C4)[nH]c2c1 [Example 6, N-[2-(6,6-dimethyl-4,5,6,7-tetrahydro-1H-indazol-3-yl)-1H-indol-6-yl]-N-methyl-2-(3-oxomorpholin-4-yl)acetamide]	8.70
CC(CO)N(C)C(=O)c1ccc2cc(-c3n[nH]c4c3CCC(C)(C)C4)[nH]c2c1 (stereo not drawn) [Example 7, 2-(6,6-dimethyl-4,5,6,7-tetrahydro-1H-indazol-3-yl)-1H-indole-6-carboxylic acid (2-hydroxy-1-methylethyl)methylamide]	7.41
CN(C(=O)CN1CCCCC1=O)c1ccc2cc(-c3n[nH]c4c3CCC(C)(CO)C4)[nH]c2c1 (stereo not drawn) [Example 8, N-[2-(6-hydroxymethyl-6-methyl-4,5,6,7-tetrahydro-1H-indazol-3-yl)-1H-indol-6-yl]-N-methyl-2-(2-oxopiperidin-1-yl)acetamide]	8.52
CC1(C)CCc2c(-c3cc4ccc(C(=O)Nc5ccccc5)cc4[nH]3)n[nH]c2C1 [Example 9]	6.48
CN(C(=O)c1ccc2cc(-c3n[nH]c4c3CCC(C)(C)C4)[nH]c2c1)c1ccccc1 [Example 10]	7.35
CC(C)(C)CNC(=O)c1ccc2cc(-c3n[nH]c4c3CCC(C)(C)C4)[nH]c2c1 [Example 11]	7.44
CC(C)CNC(=O)c1ccc2cc(-c3n[nH]c4c3CCC(C)(C)C4)[nH]c2c1 [Example 12]	7.48
CC(NC(=O)c1ccc2cc(-c3n[nH]c4c3CCC(C)(C)C4)[nH]c2c1)C(C)(C)C (stereo not drawn) [Example 13]	7.00
CN1CCN(C(=O)c2ccc3cc(-c4n[nH]c5c4CCC(C)(C)C5)[nH]c3c2)CC1 [Example 14]	7.40
CN(CC(C)(C)C)C(=O)c1ccc2cc(-c3n[nH]c4c3CCC(C)(C)C4)[nH]c2c1 [Example 15]	8.05
CC1(C)CCc2c(-c3cc4ccc(C(=O)N5CCC(O)CC5)cc4[nH]3)n[nH]c2C1 [Example 16]	7.60
CC(C)CN(C)C(=O)c1ccc2cc(-c3n[nH]c4c3CCC(C)(C)C4)[nH]c2c1 [Example 17]	8.30
CC(N(C)C(=O)c1ccc2cc(-c3n[nH]c4c3CCC(C)(C)C4)[nH]c2c1)C(C)(C)C (stereo not drawn) [Example 18]	7.35
CC1(C)CCc2c(-c3cc4ccc(C(=O)N5CCOCC5)cc4[nH]3)n[nH]c2C1 [Example 19]	7.64
CC(CO)NC(=O)c1ccc2cc(-c3n[nH]c4c3CCC(C)(C)C4)[nH]c2c1 (stereo not drawn) [Example 20]	7.33
COCC(C)NC(=O)c1ccc2cc(-c3n[nH]c4c3CCC(C)(C)C4)[nH]c2c1 (stereo not drawn) [Example 21]	7.52
COCC(C)N(C)C(=O)c1ccc2cc(-c3n[nH]c4c3CCC(C)(C)C4)[nH]c2c1 (stereo not drawn) [Example 22]	7.40
CC(C)C(CO)NC(=O)c1ccc2cc(-c3n[nH]c4c3CCC(C)(C)C4)[nH]c2c1 (stereo not drawn) [Example 23]	7.74

Compound	pIC50
COCC(NC(=O)c1ccc2cc(-c3n[nH]c4c3CCC(C)(C)C4)[nH]c2c1)C(C)C (stereo not drawn) [Example 24]	7.60
CC(C)C(CO)N(C)C(=O)c1ccc2cc(-c3n[nH]c4c3CCC(C)(C)C4)[nH]c2c1 (stereo not drawn) [Example 25]	7.59
COCC(C(C)C)N(C)C(=O)c1ccc2cc(-c3n[nH]c4c3CCC(C)(C)C4)[nH]c2c1 (stereo not drawn) [Example 26]	7.07
CC1(C)CCc2c(-c3cc4ccc(NC(=O)c5ccccc5)cc4[nH]3)n[nH]c2C1 [Example 27]	6.49
CCC(=O)Nc1ccc2cc(-c3n[nH]c4c3CCC(C)(C)C4)[nH]c2c1 [Example 28]	6.70
CC1(C)CCc2c(-c3cc4ccc(NC(N)=O)cc4[nH]3)n[nH]c2C1 [Example 29]	7.07
CN(C(=O)c1ccccc1)c1ccc2cc(-c3n[nH]c4c3CCC(C)(C)C4)[nH]c2c1 [Example 30]	8.00
CN(C(=O)c1cccc(C(F)(F)F)c1)c1ccc2cc(-c3n[nH]c4c3CCC(C)(C)C4)[nH]c2c1 [Example 31]	7.47
CCC(=O)N(C)c1ccc2cc(-c3n[nH]c4c3CCC(C)(C)C4)[nH]c2c1 [Example 32]	8.40
CN(C(=O)C1CCCC1)c1ccc2cc(-c3n[nH]c4c3CCC(C)(C)C4)[nH]c2c1 [Example 33]	7.96
CC(O)C(=O)N(C)c1ccc2cc(-c3n[nH]c4c3CCC(C)(C)C4)[nH]c2c1 (stereo not drawn) [Example 34]	8.30
CN(C(=O)CO)c1ccc2cc(-c3n[nH]c4c3CCC(C)(C)C4)[nH]c2c1 [Example 35]	8.30
COCC(=O)N(C)c1ccc2cc(-c3n[nH]c4c3CCC(C)(C)C4)[nH]c2c1 [Example 36]	> 8.52
CN(C(=O)C(C)(C)O)c1ccc2cc(-c3n[nH]c4c3CCC(C)(C)C4)[nH]c2c1 [Example 37]	8.10
CCCC(=O)N(C)c1ccc2cc(-c3n[nH]c4c3CCC(C)(C)C4)[nH]c2c1 [Example 38]	8.30
CC(C)C(=O)N(C)c1ccc2cc(-c3n[nH]c4c3CCC(C)(C)C4)[nH]c2c1 [Example 39]	8.40
CC(C)CC(=O)N(C)c1ccc2cc(-c3n[nH]c4c3CCC(C)(C)C4)[nH]c2c1 [Example 40]	8.22
COC(C)C(=O)N(C)c1ccc2cc(-c3n[nH]c4c3CCC(C)(C)C4)[nH]c2c1 (stereo not drawn) [Example 41]	8.40
COC(C)(C)C(=O)N(C)c1ccc2cc(-c3n[nH]c4c3CCC(C)(C)C4)[nH]c2c1 [Example 42]	7.66
CN(C(=O)C(O)CO)c1ccc2cc(-c3n[nH]c4c3CCC(C)(C)C4)[nH]c2c1 (stereo not drawn) [Example 43]	8.22
CCOCC(=O)N(C)c1ccc2cc(-c3n[nH]c4c3CCC(C)(C)C4)[nH]c2c1 [Example 44]	> 8.52
CN(C(=O)COc1ccccc1)c1ccc2cc(-c3n[nH]c4c3CCC(C)(C)C4)[nH]c2c1 [Example 45]	> 8.52

Source: US8299070B2, “Indole compounds and pharmaceutical use thereof” (Japan Tobacco Inc., priority 2009, dated 2012)
